From patent US20160264616A1, “THERAPEUTIC COMPOUNDS AND METHODS” (priority 2015, published 2016)
“Also recorded” adds a separate entry of the source. Like-named read-outs stand apart in the source and are kept apart here.

Columns and labels:
Gαo = target: T1, Gαo (Homo sapiens, UniProt P09471); experiment: Differential scanning fluorimetry (DSF) with Gαo; format: binding; conditions: 50 μM compound
T1 construct: 6xHis; made in house; host or cells: BL21 (DE3) E. coli (printed 'B1-21 (DE3)')
Experimental: Further evaluation of the compounds designated UI-5, UI-1590, UI-1907 and UI-1956 was conducted using Differential Scanning Fluorimetry (DSF). This method allows for the rapid measurement of protein stability based on the melting temperature (Tm) of the target protein that is bound by ligand. A shift of Tm indicates a change in protein stability to melting due to stabilization added by the small molecule binding to the target protein. The four compounds were incubated at 50 μM with RGS17 or Gαo in the presence of Sypro Orange. In aqueous solution the fluorescence emission from the dye is very weak. […] The hydrophobic parts of a native, fully folded, protein in solution are generally buried within the protein and therefore not accessible to the dye resulting in little fluorescence emission. When the protein unfolds the dye molecules can bind to the exposed hydrophobic regions of the proteins, resulting in increased fluorescence. […]
Differential scanning fluorimetry experiments were carried out using white 384-well μltraAMP PCR plates (Sorenson BioSciences; Salt Lake City, Utah). […] All data was collected using the Roche LightCycler data acquisition ability and analyzed with Graphpad Prism 6.0, using first and second derivatives of the fluorescent melting curves.

[1] = target: T2, Gαo:RGS17 protein:protein interaction (Homo sapiens, UniProt Q9UGC6); experiment: AlphaScreen Gαo:RGS17 protein:protein interaction assay (HTS and dose-response); format: binding; conditions: for inhibition of the interaction of RGS17 with Gαo: AlphaScreen dose-response, n=3 in triplicate; for inhibition at 100 µM: read-out: inhibition of the AlphaScreen assay
T2 construct: This is the same RGS17 construct used in the high throughput screening campaign that is fully active despite the N-terminal truncation; made in house; host or cells: BL21 (DE3) E. coli for Gαo
T2 sequence (Q9UGC6 84-200 limits assumed): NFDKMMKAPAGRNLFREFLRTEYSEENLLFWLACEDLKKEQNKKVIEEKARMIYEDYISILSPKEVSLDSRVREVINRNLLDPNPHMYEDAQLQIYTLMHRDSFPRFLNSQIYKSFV
Experimental: The primary biochemical screen was designed to identify compounds that function as inhibitors of the Gαo:RGS17 ppi. This was accomplished by miniaturizing our previously published HTS paradigm in a 1536-well format (17). […] We interrogated the 2320 compound containing MicroSource […] Diversity library (Discovery Systems, Inc. Gaylordsville, Conn.) (FIG. 3).
In total, 2,320 compounds from the MicroSource […] chemical library were screened at a concentration of 40 μM. Two 1536-well plates containing 1,280 compounds and 128 wells of DMSO controls were used. RGS17-anti-GST and Gαo-biotin-streptavidin beads were prepared as previously described. In brief, 100 μg (20 μL) of beads were coupled to 20 ng (10 nM) of each binding partner (Gαo:RGS17) and incubated for 30 min on ice. Then, 4.5 μL of RGS17-anti-GST beads were added using a FlexDrop IV (PerkinElmer, Waltham, Mass.) and incubated for 10 min with compound while the Gαo-biotin-streptavidin beads were incubated with AMF. After incubation, 4.5 μL of the Gαo-biotin-streptavidin bead/protein mixture was added to compound containing wells and incubated on ice for 1.25 hours and read at room temperature using the EnVision plate reader with monochromators.
Experiments were carried out similarly to the high-throughput AlphaScreen assay except this was completed using Corning 384-well white flat bottom plates and the final total volume was 60 μL, with 20 µL of Gαo-biotin-streptavidin and RGS17-anti-GST beads at a final concentration of 10 nM. Then, 20 μL of compounds in a half log dilution series to yield a final range from 1 nM to 100 μM was added to RGS17-anti-GST beads and incubated for 10 min in the dark on ice. Next, 20 μL of Gαo-biotin-streptavidin beads were then added in the presence of AMF and GDP. Negative controls were determined in the absence of AMF and compound. Maximum binding was determined in the absence of compounds but in the presence of AMF and GDP.

[2] = Solubility in aqueous ITC buffer

T1 sequence (P09471 whole entry): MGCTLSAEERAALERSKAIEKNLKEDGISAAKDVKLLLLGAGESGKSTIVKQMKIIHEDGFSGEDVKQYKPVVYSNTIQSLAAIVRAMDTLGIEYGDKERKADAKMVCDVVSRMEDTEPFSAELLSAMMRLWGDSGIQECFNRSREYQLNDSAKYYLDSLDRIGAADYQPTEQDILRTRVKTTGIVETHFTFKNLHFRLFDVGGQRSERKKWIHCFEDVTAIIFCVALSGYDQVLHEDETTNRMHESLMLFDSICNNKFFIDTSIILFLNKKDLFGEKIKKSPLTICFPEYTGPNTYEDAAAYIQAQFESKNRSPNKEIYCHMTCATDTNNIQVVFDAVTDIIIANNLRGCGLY

SMILES: CC(C)=CCC[C@]1(C)C=Cc2c(O)c3c(c(CC=C(C)C)c2O1)O[C@]12C(=C[C@@H]4C[C@H]1C(C)(C)O[C@@]2(C/C=C(/C)C(=O)O)C4=O)C3=O [UI-1907]
- effect on Gαo thermal stability (DSF) (Gαo): decrease the thermal stability of the Gαo subunit
- inhibition of the interaction of RGS17 with Gαo [1]: dose dependent manner
- inhibition at 100 µM [1]: > 25%

SMILES: CC1=C(O)C(=O)C=C2C1=CC=C1[C@@]2(C)CC[C@@]2(C)[C@@H]3C[C@](C)(C(=O)O)CC[C@]3(C)CC[C@]12C [UI-1590]
- inhibition of the interaction of RGS17 with Gαo [1]: dose dependent manner
- inhibition at 100 µM [1]: > 25%
- solubility at the high concentration needed for ITC [2]: not soluble at the high concentration required; also recorded: not amendable to ITC due to solubility issues

SMILES: C[n+]1cc2c3c(ccc2c2ccc4cc5c(cc4c21)OCO5)OCO3 [UI-5]
- inhibition of the interaction of RGS17 with Gαo [1]: dose dependent manner
- inhibition at 100 µM [1]: > 25%
- solubility at the high concentration needed for ITC [2]: soluble in the aqueous buffer

SMILES: O=c1c(-c2cc(O)c(O)c(O)c2)coc2cc(O)c(O)c(O)c12 [UI-1956, 5,6,7-trihydroxy-3-(3,4,5-trihydroxyphenyl)-4H-chromen-4-one]
- inhibition at 100 µM ([1]; 100 μM compound, from dose-response experiments): > 25%
- inhibition of the interaction of RGS17 with Gαo [1]: dose dependent manner
- solubility at the high concentration needed for ITC [2]: soluble in the aqueous buffer
